Assay results: paper PMC5960316 (Proceedings of the National Academy of Sciences of the …, 2018)

Experiments:
[1] = target: T1, endogenous NrdEF (BsNrdEF) (Bacillus subtilis, UniProt P50620); assay: HClO4 release and high-resolution LC/ESI-MS of copurified nucleotide; type: binding; conditions: stoichiometry, not affinity; native copurified ligand; protein ~80% pure
T1 sequence (P50620 1-700): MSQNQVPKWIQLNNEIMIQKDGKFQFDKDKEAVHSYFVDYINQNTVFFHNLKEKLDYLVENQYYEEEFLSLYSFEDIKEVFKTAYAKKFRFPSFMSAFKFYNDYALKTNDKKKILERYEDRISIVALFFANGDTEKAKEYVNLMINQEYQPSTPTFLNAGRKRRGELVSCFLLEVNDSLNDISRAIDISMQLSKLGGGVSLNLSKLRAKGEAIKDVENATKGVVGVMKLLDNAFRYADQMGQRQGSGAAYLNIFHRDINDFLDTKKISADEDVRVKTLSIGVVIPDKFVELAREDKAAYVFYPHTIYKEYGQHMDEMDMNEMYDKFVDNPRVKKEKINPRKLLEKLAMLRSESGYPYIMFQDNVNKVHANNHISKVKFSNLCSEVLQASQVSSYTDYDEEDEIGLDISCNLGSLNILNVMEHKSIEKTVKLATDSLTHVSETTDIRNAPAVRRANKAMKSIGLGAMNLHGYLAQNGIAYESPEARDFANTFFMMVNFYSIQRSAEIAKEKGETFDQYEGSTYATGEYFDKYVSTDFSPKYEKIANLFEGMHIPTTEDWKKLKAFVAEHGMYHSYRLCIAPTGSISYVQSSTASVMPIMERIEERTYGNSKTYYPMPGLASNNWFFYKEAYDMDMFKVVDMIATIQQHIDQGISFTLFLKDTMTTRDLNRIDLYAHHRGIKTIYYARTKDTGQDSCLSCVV
T1 sequence (P50621 1-329 partner): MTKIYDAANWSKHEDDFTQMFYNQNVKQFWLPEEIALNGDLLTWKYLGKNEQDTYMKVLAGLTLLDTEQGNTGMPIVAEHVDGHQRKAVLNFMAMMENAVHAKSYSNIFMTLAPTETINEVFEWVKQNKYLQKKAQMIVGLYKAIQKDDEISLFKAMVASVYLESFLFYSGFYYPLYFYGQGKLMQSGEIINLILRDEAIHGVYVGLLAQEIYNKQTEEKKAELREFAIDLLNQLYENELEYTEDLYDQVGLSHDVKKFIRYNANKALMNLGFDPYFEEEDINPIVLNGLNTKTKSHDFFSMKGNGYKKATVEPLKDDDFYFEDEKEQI

[2] = target: T2, B. subtilis class Ib RNR (NrdE with Mn(III)2-Y• NrdF) (Bacillus subtilis, UniProt P50620); assay: spectrophotometric RNR activity assay, dATP titration; type: biochemical; conditions: read-out: % activity remaining at 25 μM
T2 sequence (P50620 1-700): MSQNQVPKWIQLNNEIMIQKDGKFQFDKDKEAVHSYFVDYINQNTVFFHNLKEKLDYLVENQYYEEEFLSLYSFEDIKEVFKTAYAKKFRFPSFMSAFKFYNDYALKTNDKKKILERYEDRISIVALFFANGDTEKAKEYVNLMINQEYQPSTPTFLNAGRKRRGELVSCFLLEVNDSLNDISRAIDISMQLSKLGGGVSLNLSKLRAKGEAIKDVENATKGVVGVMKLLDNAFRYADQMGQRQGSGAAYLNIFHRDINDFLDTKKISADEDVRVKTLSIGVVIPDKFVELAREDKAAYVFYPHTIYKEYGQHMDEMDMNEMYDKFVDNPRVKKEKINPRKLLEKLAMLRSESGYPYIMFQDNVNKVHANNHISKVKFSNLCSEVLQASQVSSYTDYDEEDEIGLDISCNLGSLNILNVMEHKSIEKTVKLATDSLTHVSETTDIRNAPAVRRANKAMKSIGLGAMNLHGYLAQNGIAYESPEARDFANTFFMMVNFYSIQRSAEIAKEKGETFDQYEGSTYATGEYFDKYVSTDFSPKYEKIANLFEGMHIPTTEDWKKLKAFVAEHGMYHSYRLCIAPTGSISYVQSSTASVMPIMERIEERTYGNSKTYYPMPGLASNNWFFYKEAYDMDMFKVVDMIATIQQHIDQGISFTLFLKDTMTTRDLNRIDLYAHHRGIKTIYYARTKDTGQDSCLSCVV
T2 sequence (P50621 1-329 partner): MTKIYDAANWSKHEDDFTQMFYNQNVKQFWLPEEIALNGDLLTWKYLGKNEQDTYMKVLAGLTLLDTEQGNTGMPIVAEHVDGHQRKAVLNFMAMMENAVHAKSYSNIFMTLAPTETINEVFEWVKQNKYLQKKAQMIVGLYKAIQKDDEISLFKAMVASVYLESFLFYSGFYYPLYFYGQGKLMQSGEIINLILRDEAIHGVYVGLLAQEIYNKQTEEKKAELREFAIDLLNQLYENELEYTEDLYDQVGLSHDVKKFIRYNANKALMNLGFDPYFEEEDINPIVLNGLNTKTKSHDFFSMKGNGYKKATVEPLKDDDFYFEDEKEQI

[3] = target: T3, Bacillus subtilis NrdE isolated from B. subtilis as the NrdE⋅NrdF (NrdEF) complex (Bacillus subtilis, UniProt P50620 1-700); assay: co-purification from B. subtilis
T3 sequence (looked up): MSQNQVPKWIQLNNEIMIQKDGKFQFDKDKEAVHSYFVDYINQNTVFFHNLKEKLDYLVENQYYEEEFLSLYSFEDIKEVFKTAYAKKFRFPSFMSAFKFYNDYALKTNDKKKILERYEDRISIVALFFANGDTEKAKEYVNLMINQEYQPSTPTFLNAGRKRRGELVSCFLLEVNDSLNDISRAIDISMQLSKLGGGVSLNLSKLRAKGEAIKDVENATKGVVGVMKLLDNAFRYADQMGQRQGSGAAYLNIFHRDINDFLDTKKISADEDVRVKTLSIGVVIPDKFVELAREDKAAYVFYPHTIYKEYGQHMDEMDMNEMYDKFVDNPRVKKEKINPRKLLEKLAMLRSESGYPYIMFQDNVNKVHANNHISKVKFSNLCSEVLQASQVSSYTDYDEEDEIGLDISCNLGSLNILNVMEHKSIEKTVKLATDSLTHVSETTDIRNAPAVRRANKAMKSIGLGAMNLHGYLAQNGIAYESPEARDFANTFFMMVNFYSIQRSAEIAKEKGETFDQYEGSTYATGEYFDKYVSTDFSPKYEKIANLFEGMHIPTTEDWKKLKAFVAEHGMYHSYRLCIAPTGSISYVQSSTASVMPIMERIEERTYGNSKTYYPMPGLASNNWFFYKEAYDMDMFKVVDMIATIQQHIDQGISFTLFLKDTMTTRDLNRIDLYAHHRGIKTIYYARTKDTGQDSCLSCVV

**Q.** Nc1ncnc2c1ncn2[C@H]1C[C@H](O)[C@@H](COP(=O)(O)O)O1 [dAMP] was tested. Which dAMP/α [1] did it give?
**A.** 0.3 per α

**Q.** With Nc1ncnc2c1ncn2[C@H]1C[C@H](O)[C@@H](COP(=O)(O)OP(=O)(O)OP(=O)(O)O)O1 [dATP] as the molecule, how does the remaining activity at 25 µM [2] read?
**A.** ~15%

B1: Bacillus subtilis NrdF (Mn-loaded) isolated from B. subtilis as the NrdE⋅NrdF (NrdEF) complex (enzyme, UniProt P50621 1-329, looked up)
chain: MTKIYDAANWSKHEDDFTQMFYNQNVKQFWLPEEIALNGDLLTWKYLGKNEQDTYMKVLAGLTLLDTEQGNTGMPIVAEHVDGHQRKAVLNFMAMMENAVHAKSYSNIFMTLAPTETINEVFEWVKQNKYLQKKAQMIVGLYKAIQKDDEISLFKAMVASVYLESFLFYSGFYYPLYFYGQGKLMQSGEIINLILRDEAIHGVYVGLLAQEIYNKQTEEKKAELREFAIDLLNQLYENELEYTEDLYDQVGLSHDVKKFIRYNANKALMNLGFDPYFEEEDINPIVLNGLNTKTKSHDFFSMKGNGYKKATVEPLKDDDFYFEDEKEQI
**Q.** How did the “stoichiometry N” value [3] turn out when B1 was run?
**A.** ~1
